Data reported in publication PMC10374545, “A small molecule inhibitor of PTP1B and PTPN2 enhances T cell anti-tumor immunity” (Nature Communications, 2023).
“And” between values parts separate entries of the source, which are not always exact repeats. Identical values can stand only once.

Tests used:
[1] = test system: STAT-1 target genes in AT3-OVA tumors; assay: qPCR of STAT-1 target genes in AT3-OVA tumors; type: in vivo, mouse; set-up: key: relative expression by comparative Ct (ΔΔCt), normalized to Rps18 or Gapdh; conditions: tumour gene expression, Lck-Cre;Ptpn2flfl+CMP-182, individual mice (Figure 7F)
Method: For quantitative real-time PCR analysis, RNA from tumors was isolated using RNAzol (Sigma-Aldrich, St. Louis, MO), and RNA quality was assessed using a NanoDrop 2000 (Thermo Fisher Scientific, Waltham MA). mRNA was reverse-transcribed using the High-Capacity cDNA Reverse Transcription Kit (Applied Biosystems, Thermo Fisher Scientific, Waltham, MA) and processed for quantitative Real-Time PCR using the Fast SYBR Green Master Mix (Applied Biosystems, Thermo Fisher Scientific, Waltham MA) and PrimePCR™ SYBR Green Assays (Bio-Rad, Hercules, CA) for Cxcl9 (qMmuCID0023784), Cxcl10 (qMmuCED0049500), Tapbp (qMmuCEP0035035), Tap1 (qMmuCEP0057739), […], H2ab1 (qMmuCIP0029038), Cd274 (qMmuCED0044192), H2k1 (qMmuCEP0034842), Tnf (qMmuCED0004141) and Ifng (qMmuCID0006268). Relative gene expression was determined by normalization to the house-keeping gene Rps18 (qMmuCED0045430) or Gapdh (qMmuCED0027497). Gene quantification was performed with the comparative Ct (ΔΔCt) method.

AT3 mammary tumors = assay: Tumor-infiltrating lymphocytes in AT3 tumors, Compound 182 with α-PD-1; type: in vivo, mouse; set-up: CD4 EM / CD8 EM / IFNg+ TNF+ / GRZMB / MDSCs / NK cells / Tregs: unit not given here
Method: In addition, mice received four intraperitoneal injections of α-PD-1 (200 μg in 200 μl D-PBS; clone RMP1-14), or rat IgG2a isotype control (100 μg in 200 μl D-PBS, Bio X Cell) twice per week.
Tumor-bearing mice were sacrificed and tumors were excised and digested at 37 °C for 30 min using a cocktail of 1 mg/ml collagenase type IV (Worthington Biochemicals) and 0.02 mg/ml DNase I (Sigma-Aldrich) in DMEM supplemented with 2% (v/v) FBS. Cells were passed through a 70 μm cell strainer (BD Biosciences) twice and processed for flow cytometry. For assessing T cell activation, cells were surface stained with fluorophore-conjugated antibodies to CD62L, CD44, PD-1, and TIM-3. For the assessment of NK cells, B cells, myeloid-derived suppressor cells (MDSCs), dendritic cells (DCs), and tumor-associated macrophages, cells were surface stained with fluorophore-conjugated antibodies to NK1.1, TCRβ, CD19, CD11b, CD11c, F4/80, Ly6C and Ly6G. For the detection of intracellular cytokines TNF and IFNγ, T cells were stimulated with PMA (20 ng/ml; Sigma-Aldrich) and ionomycin (1 μg/ml; Sigma-Aldrich) in the presence of GolgiPlug™ and GolgiStop™ (BD Biosciences) for 4 h at 37 °C in complete T cell medium. For the intracellular detection of granzyme B, cells were processed untreated without the addition of BD GolgiPlug™ and BD GolgiStop™.

[2] = Serum anti-nuclear antibodies (ANA) ELISA; type: in vivo, mouse
Excerpt: CD3ε (BD Biosciences Cat# 553058) and CD28 (BD Biosciences Cat# 557393) antibodies for T cell stimulation and NK1.1 (BD Biosciences Cat# 564143) antibody for NK cell stimulation were purchased from BD Biosciences. Ly49H (clone 3D10, BioLegend Cat# 144702) antibody for NK stimulation was from BioLegend. For analyzing T cell signaling, p-(Y418) SFK (Thermo Fisher Scientific Cat# 14-9034-82) was from Invitrogen and p-(Y694) STAT-5 (D47E7) XP® (Cell Signaling Technology Cat# 4322) was from Cell Signaling. Recombinant human IL-2, recombinant murine IL-7 and recombinant human IL-15 were purchased from the PeproTech, recombinant mouse IL-12 and recombinant human IL-18 were from Australia Biosearch and […] (N4) from Mimotopes. InVivoMAb anti-mouse PD-1 (Bio X Cell Cat# BE0146) and InVivoMAb rat IgG2a isotype control (Bio X Cell Cat# BE0251) were purchased from Bio X Cell. DNase I was from Sigma-Aldrich. Rabbit monoclonal PTP1B (Abcam Cat# ab244207) antibody for flow cytometry was from Abcam and mouse monoclonal PTPN2 6F3 antibody for immunoblotting and flow cytometry was from MédiMabs (Cat# MM-019-P). Mouse anti-actin (Thermo Fisher Scientific Cat# MA5-11866) from Invitrogen and mouse α-tubulin (Sigma-Aldrich Cat# T5168) was from Merck. The mouse anti-nuclear antibodies Ig’s (total IgA+G + M) ELISA Kit was from Alpha Diagnostic Int. and the Transaminase II Kit from Wako Pure Chemicals. FBS was purchased from Thermo Scientific, RPMI 1640, DMEM, MEM, HEPES, non-essential amino acids, penicillin/streptomycin, and sodium-pyruvate were from Invitrogen, collagenase type IV was purchased from Worthington Biochemical and ABBV-CLS-484 was from MedChemExpress (Cat# HY-145923).

[3] = Morbidity and overt toxicity in treated tumor-bearing mice
Method: Control animals received an injection at the same time of 200 μl of saline. Stock solutions were stored at −80 °C and thawed before each administration.

[4] = Figure 9D, tumour-infiltrating cells, AT-3, individual mice, listed as CMP-182
[5] = Figure 9E, AT-3, individual mice, listed as CMP-182
[6] = Figure 9F, tumour-infiltrating cells, AT-3, individual mice, listed as CMP-182

## CC(C)(O)CCOc1ccc2cc(O)c(N3CC(=O)NS3(=O)=O)c(F)c2c1 [Compound 182, 5-(1-Fluoro-3-hydroxy-7-(3-hydroxy-3-methylbutoxy)naphthalen-2-yl)−1,2,5-thiadiazolidin-3-one 1,1-dioxide]
[1]
  H2-Ab1: 1.37 and 2.449 and 1.819 and 1.855 and 0.6743 and 0.4848
  IFNg: 2.663 and 2.871 and 3.337 and 2.746 and 0.6434 and 0.3583
  cd274: 1.409 and 1.249 and 1.434 and 1.371 and 1.147 and 0.5391
  cxcl9: 1.651 and 1.828 and 1.511 and 1.806 and 0.4356 and 0.3111
  cxcl10: 1.078 and 1.3193 and 1.359 and 1.098 and 0.6504 and 0.3928
AT3 mammary tumors; Compound 182 10 mg/kg i.v. + α-PD-1 200 μg i.p.
  recruitment of CD4+ and CD8+ effector/memory T cells, combination therapy: synergistic recruitment
AT3 mammary tumors; [4]
  CD4 EM: 43342.4 and 57673.5 and 79430.7 and 97780.3 and 96326.3 and 45818.5
  CD8 EM: 103472 and 141360 and 229947 and 172459 and 191087 and 113353
AT3 mammary tumors; [5]
  GRZMB: 24.8 and 18.9 and 21.2 and 17 and 24 and 19.1
  PD-1 TIM-3: 32.5 and 47.7 and 47.8 and 31.8 and 39.5 and 41.5
AT3 mammary tumors; Figure 9E, first IFNg+ TNF+ panel, AT-3, individual mice, listed as CMP-182
  IFNg+ TNF+: 7.74 and 4.13 and 7.71 and 10.5 and 16.5 and 3.24
AT3 mammary tumors; Figure 9E, second IFNg+ TNF+ panel, AT-3, individual mice, listed as CMP-182
  IFNg+ TNF+: 19 and 26.4 and 15.4 and 31.9 and 43.5 and 25.3
AT3 mammary tumors; [6]
  MDSCs: 15172.6 and 12646.1 and 18636.2 and 29520.3 and 27688.9 and 13342.8
  NK cells: 41998.7 and 24391.4 and 32687 and 55002.2 and 59698.1 and 23635.5
  Tregs: 32249.8 and 40798.3 and 43823.5 and 55176.6 and 44430.4 and 6773.49
[2]; 10 mg/kg i.v.
  serum anti-nuclear antibodies (ANA): unaltered
[2]; Figure 10C, individual mice, listed as CMP-182
  Serum ANA: 77.3077 and 275 and 43.4615 and 42.6923 and 47.3077 and 142.692 and 64.2308
[2]; Figure 10C, median, n=8
  ANA Serum, median: 70.77, n=8
[3]; AT3-OVA tumor-bearing mice, 10 mg/kg i.v.
  morbidity or systemic inflammation: not accompanied by overt signs of morbidity or systemic inflammation
[3]; dosing every two days
  overt toxicities: did not result in any overt toxicities
